Test results: ChEMBL document CHEMBL6096737, “Discovery of Pyrrolopyrazine Carboxamide Derivatives as Potent and Selective FGFR2/3 Inhibitors that Overcome Mutant Resistance” (J Med Chem, 2025)

Assays:
in vivo [1] = settings: female, CD-1, mouse, po, 10 mg/kg
in vivo [2] = settings: female, CD-1, mouse, po, 10 mg/kg; remark: listed apart in the source
in vivo [3] = settings: female, CD-1, mouse, po, 10 mg/kg; remark: listed apart in the source
in vivo [4] = settings: male, Sprague-Dawley, rat, plasma, iv, 1 mg/kg
in vivo [5] = settings: male, Sprague-Dawley, rat, po, 10 mg/kg
in vivo [6] = settings: male, Sprague-Dawley, rat, po, 10 mg/kg; remark: listed apart in the source
in vivo [7] = settings: male, Sprague-Dawley, rat, po, 10 mg/kg; remark: listed apart in the source
in vivo [8] = settings: male, Sprague-Dawley, rat, po, 10 mg/kg; remark: listed apart in the source
in vivo [9] = settings: male, Sprague-Dawley, rat, po, 10 mg/kg; remark: listed apart in the source
in vivo [10] = settings: male, Beagle, dog, plasma, iv, 1 mg/kg
in vivo [11] = settings: male, Beagle, dog, po, 5 mg/kg
in vivo [12] = settings: male, Beagle, dog, po, 5 mg/kg; remark: listed apart in the source
in vivo [13] = settings: male, Beagle, dog, po, 5 mg/kg; remark: listed apart in the source
in vivo [14] = settings: male, Beagle, dog, po, 5 mg/kg; remark: listed apart in the source
in vivo [15] = settings: male, Beagle, dog, po, 5 mg/kg; remark: listed apart in the source
in vivo [16] = settings: female, Balb/c, mouse, po, 10 mg/kg
in vivo [17] = settings: female, Balb/c, mouse, po, 10 mg/kg; remark: listed apart in the source
in vivo [18] = settings: female, Balb/c, mouse, po, 10 mg/kg; remark: listed apart in the source
in vitro = settings: human, plasma
physchem [19] = settings: glutathione (GSH) solution, 0.1 uM GSH
physchem [20] = settings: glutathione (GSH) solution, 1 uM GSH
in vivo [21] = settings: female, CD-1, mouse, plasma, iv, 1 mg/kg
in vivo [22] = settings: female, CD-1, mouse, po, 10 mg/kg; remark: listed apart in the source
in vivo [23] = settings: female, CD-1, mouse, po, 10 mg/kg; remark: listed apart in the source

SMILES: C=C(C)C(=O)Nc1ccc(-c2c(-c3ccc(Oc4nccc(C)n4)c(F)c3)c3c(N)ncnc3n2C)cc1 [LIRAFUGRATINIB]
- MRT last at 24 h (in vivo [1]): 2 h
- Cmax at 24 h (in vivo [2]): 5760 ng/mL
- half-life at 24 h (in vivo [3]): 2.4 h
- clearance at 24 h (in vivo [4]): 59.4 mL/min/kg
- MRT last at 24 h (in vivo [5]): 0.23 h
- Cmax at 24 h (in vivo [6]): 111 ng/mL
- AUC(0-t) at 24 h (in vivo [7]): 448 ng·h/mL
- half-life at 24 h (in vivo [8]): 0.77 h
- bioavailability at 24 h (in vivo [9]): 16%
- clearance at 24 h (in vivo [10]): 24.9 mL/min/kg
- MRT last at 24 h (in vivo [11]): 0.87 h
- Cmax at 24 h (in vivo [12]): 1360 ng/mL
- AUC(0-t) at 24 h (in vivo [13]): 2680 ng·h/mL
- half-life at 24 h (in vivo [14]): 2.3 h
- bioavailability at 24 h (in vivo [15]): 75.4%
- MRT last at 8 h (in vivo [16]): 2.7 h
- Cmax at 8 h (in vivo [17]): 3740 ng/mL
- AUC(0-t) at 8 h (in vivo [18]): 20000 ng·h/mL
- half-life (in vitro): > 4.82 h

SMILES: C=C(CO)C(=O)Nc1ccc(-c2c(-c3ccc(Oc4nccc(C)n4)cc3)c(C(N)=O)c3cnc(C)cn23)cc1
- half-life (physchem [19]): 0.8 h
- half-life (physchem [20]): 0.9 h

SMILES: C=C(F)C(=O)Nc1ccc(-c2c(-c3ccc(Oc4nccc(C)n4)cc3)c(C(N)=O)c3cnc(C)cn23)c(F)c1
- clearance at 24 h (in vivo [21]): 29.1 mL/min/kg
- AUC(0-t) at 24 h (in vivo [22]): 2470 ng·h/mL
- bioavailability at 24 h (in vivo [23]): 41.9%
- half-life (in vitro): > 4.82 h
